In series [1] the test system is isolated working rat heart. The settings on record: S 100 ng/ml plus R 50-950 ng/ml cumulative.
The test system of another series is canine heart. Conditions: for AH time / Heart rate / Mean arterial pressure: mean ± SE. The method, then:
Fourteen adult mongrel dogs of either sex weighing between 19 and 25 kg were prepared for chronic electrophysiologic investigation by implanting epicardial electrodes and an indwelling aortic catheter. The dogs were fasted overnight and initially anesthetized with halothane on the day of surgery. After tracheal intubation, anesthesia was maintained with isoflurane and oxygen via positive pressure ventilation to keep end tidal carbon dioxide within the normal range. Muscular relaxation was induced by pancuronium. A right thoracotomy was performed in the fifth intercostal space. Three bipolar electrode pairs were sutured to the epicardial surface of the right atrial appendage and on the right and left ventricular apex (FIG. 5). A bipolar electrode was sutured to the right atrium close to the anatomical region of the sinoatrial node. A bipolar plunge electrode was placed into base of the interventricular septum to record a His bundle electrogram. An indwelling arterial catheter was placed into the aorta through the left femoral artery after surgical exposure of the artery at the inner side of the hind limb. All electrode leads were subcutaneously tunneled and exited through the skin between the scapulae. Incisions were closed in anatomic fashion and standard postoperative methods of analgesia were provided with 0.015 mg/kg of buprenorphine (Buprenex®, Reckitt & Colman, Hull, UK) and two times of 25 mg/kg cefazolin (Cefazolin Sodium®, SoloPak Laboratories, Elk Groove Village, Ill.) and dogs were allowed to recover from surgery for a period of seven days prior to testing.
Electrical signals from the bipolar electrodes, after suitable amplification in a custom built preamplifier (gain 1000), were filtered in a separate custom designed and built common mode rejection amplifier with a bandpass filter of 10-1000 Hz and individually adjusted for signal strength (maximal gain 400). […] Right atrial appendage (RA), right ventricular apex (RVA) and His bundle electrograms (HB) were recorded, simultaneously. […] All measurements of conduction times were made during spontaneous sinus rhythm.
The His bundle electrode (HBE) was advanced into the base of the interatrial septum from the aortic root. The electrode was advanced from a point located just behind and to the right of the origin of the right coronary artery. The HBE was slowly advanced parallel to the aorta, inferiorly and slightly anteriorly until a well discernible His potential was recorded. AV conduction (AH) interval was measured as the time difference (ms) between the onset of the initial rapid deflection in the RA electrogram to the beginning of the His potential in the HB electrogram. His-ventricular (HV) conduction time interval (ms) was measured from the beginning of the His potential (HBE) to the initial deflection of the QRS complex wave (earliest left ventricular activation) in a simultaneously recorded surface ECG lead II.
As an indicator of automaticity, sinus node recovery time (SNRT) was determined by pacing the right atrial appendage (30 s at 180 and 200 beats/min at 2 msec pulse duration; 2×threshold). SNRT was measured from the last pacing spike to the first spontaneous atrial activity on the His bundle electrogram after cessation of pacing (ms).
A timed extrastimulus (S2) was delivered 300 ms after the preceding pacing spike (S1).
Verapamil was dissolved in 5% dextrose and water ([…]).
During the postoperative period, each dog was trained to stand quietly in a sling during electrophysiological monitoring. Prior to measurement, electrical signals in each dog were monitored to verify the absence of spontaneous arrhythmias other-than normal respiratory sinus arrhythmias.
From the resting dog, 5 channel records were obtained at a sampling rate of 1 kHz per channel for 7 min to determine the following conduction intervals: AH, HV, QRS, QT and HR. A corrected QT interval [QTc=QT interval in ms/ (R-R interval in s)^1/2 ] was also calculated.

For series [2] the following is noted: for Concentration in octanol / Concentration in water: pH 5, individual replicates.
Series [3] concerns isolated working rat heart.
Setting [4] is: S 100 ng/ml, R 950 ng/ml, R/S ratio 9.5.

Where “and” joins values, the source holds several entries; their conditions need not be identical. Equal values may be shown once. Read-outs that look alike come from different tables or passages of the source.

The text below walks through data of patent US5955500A (G. D. Searle & Co., priority 1997, dated 1999).

As to `COc1ccc(CCN(C)CCCC(C#N)(c2ccc(OC)c(OC)c2)C(C)C)cc1OC` (racemic) [R/S (0.5)], in series [1], the “Cardiac output (CO), significance vs predrug” value was “n.s” and the “Heart rate (HR), significance vs predrug” value is recorded as “n.s”.
On to `COc1ccc(CCN(C)CCCC(C#N)(c2ccc(OC)c(OC)c2)C(C)C)cc1OC` (racemic) [R/S (2.0)], for which, in series [1], the “Cardiac output (CO), significance vs predrug” value is on record as “n.s”; the “Heart rate (HR), significance vs predrug” value is given as “n.s”; the “Peak systolic pressure (PSP), significance vs predrug” value is recorded as “n.s”.
`COc1ccc(CCN(C)CCCC(C#N)(c2ccc(OC)c(OC)c2)C(C)C)cc1OC` (racemic) [20/80S]: the AH time in the series on canine heart (0.1 mg/kg i.v., 0 min) stood at 88 ± 5 ms; in the series on canine heart (0.1 mg/kg i.v., 1 min), 100 ± 5 ms; in the series with canine heart (0.1 mg/kg i.v., 2 min), 106 ± 5 ms; with canine heart (0.1 mg/kg i.v., 3 min) it was 107 ± 5 ms; in the series on canine heart (0.1 mg/kg i.v., 4 min) it was 111 ± 6 ms; in the series on canine heart (0.1 mg/kg i.v., 5 min) it was 112 ± 5 ms. Also, the AH time in the series with canine heart (0.2 mg/kg i.v., 0 min) was determined as 110 ± 10 ms; in the series with canine heart (0.2 mg/kg i.v., 1 min), 126 ± 11 ms; in the series with canine heart (0.2 mg/kg i.v., 2 min), 133 ± 10 ms; in the series with canine heart (0.2 mg/kg i.v., 3 min), 140 ± 12 ms; with canine heart (0.2 mg/kg i.v., 4 min), 127 ± 14 ms; with canine heart (0.2 mg/kg i.v., 5 min) it was 130 ± 11 ms. Further, the Heart rate was determined as 155 ± 13 beats per min in the series on canine heart (0.1 mg/kg i.v., 0 min); 143 ± 11 beats per min in the series on canine heart (0.1 mg/kg i.v., 1 min); 127 ± 10 beats per min with canine heart (0.1 mg/kg i.v., 2 min); 124 ± 9 beats per min in the series on canine heart (0.1 mg/kg i.v., 3 min); 113 ± 11 beats per min in the series on canine heart (0.1 mg/kg i.v., 4 min); 111 ± 8 beats per min in the series on canine heart (0.1 mg/kg i.v., 5 min). In addition, the Heart rate in the series with canine heart (0.2 mg/kg i.v., 0 min) is 168 ± 10 beats per min; in the series on canine heart (0.2 mg/kg i.v., 1 min), 166 ± 9 beats per min; with canine heart (0.2 mg/kg i.v., 2 min) it was 154 ± 8 beats per min; in the series on canine heart (0.2 mg/kg i.v., 3 min), 141 ± 11 beats per min; with canine heart (0.2 mg/kg i.v., 4 min), 155 ± 16 beats per min; in the series with canine heart (0.2 mg/kg i.v., 5 min), 146 ± 4 beats per min. For the same compound, the Mean arterial pressure in the series with canine heart (0.1 mg/kg i.v., 0 min) came to 92 ± 4 mmHg; in the series with canine heart (0.1 mg/kg i.v., 1 min), 97 ± 3 mmHg; in the series on canine heart (0.1 mg/kg i.v., 2 min), 100 ± 3 mmHg; in the series on canine heart (0.1 mg/kg i.v., 3 min), 100 ± 4 mmHg; in the series with canine heart (0.1 mg/kg i.v., 4 min) it was 99 ± 4 mmHg; in the series on canine heart (0.1 mg/kg i.v., 5 min) it was 101 ± 4 mmHg. Moreover, the Mean arterial pressure in the series with canine heart (0.2 mg/kg i.v., 0 min) came out at 84 ± 3 mmHg; in the series with canine heart (0.2 mg/kg i.v., 1 min), 87 ± 4 mmHg; with canine heart (0.2 mg/kg i.v., 2 min), 93 ± 5 mmHg; in the series with canine heart (0.2 mg/kg i.v., 3 min) it was 94 ± 5 mmHg; with canine heart (0.2 mg/kg i.v., 4 min), 97 ± 5 mmHg; in the series on canine heart (0.2 mg/kg i.v., 5 min), 98 ± 3 mmHg. The “Occurrence of AV conduction block” value with canine heart (0.2 mg/kg i.v., listed as 20R/80S-verapamil) came out at 5 animals. For the same compound, in the series on canine heart (0.4 mg/kg i.v., listed as 20R/80S-verapamil), the “Occurrence of second and third degree AV conduction block” value is on record as “all”. For the same compound, the “Recovery of the decrease in MAP” value with canine heart (compared with any other groups) is given as “slower”. Further, the “Peak effect on HR, in words” value with canine heart (dog, in vivo) was “drastic increase in HR”. Moreover, the “QTc interval compared with 100R-verapamil, in words” value in the series on canine heart (dog, in vivo) is listed as “significantly increased compared with 100R-verapamil”. In addition, in the series with canine heart (increase in HR against drop in MAP), the “Interaction between MAP and HR (multiple linear regression), in words” value is “greatest rate of increase in HR as opposed to a drop in MAP”. Moreover, in series [2] (pH 5), the “Eutectic compound identification (phase diagram based on Po/w)” value is reported as “eutectic compound”. In addition, in series [2] (listed as 80), the Concentration in octanol was 4160 ng/mL and 4490 ng/mL and 3810 ng/mL. Also, the Concentration in water in series [2] (listed as 80) is 6950 ng/mL and 6930 ng/mL and 6920 ng/mL.
As to `COc1ccc(CCN(C)CCCC(C#N)(c2ccc(OC)c(OC)c2)C(C)C)cc1OC` (racemic) [R/S (9.5)], the “Effect of mixture on heart rate, in words” value in series [3] (R/S ratio 9.5) is “additive”. For the same compound, the “Peak systolic pressure (PSP), significance vs predrug” value in series [3] (setting [4]) is on record as “n.s”.
Regarding `COc1ccc(CCN(C)CCCC(C#N)(c2ccc(OC)c(OC)c2)C(C)C)cc1OC` (racemic) [R/S (4.5)], in series [1], the “Heart rate (HR), significance vs predrug” value is on record as “n.s” and the “Peak systolic pressure (PSP), significance vs predrug” value is “n.s”.
With `COc1ccc(CCN(C)CCC[C@@](C#N)(c2ccc(OC)c(OC)c2)C(C)C)cc1OC` [S-verapamil, reference compound], in series [2] (listed as 100), the Concentration in octanol is 5150 ng/mL and 5290 ng/mL and 5530 ng/mL; the Concentration in water was 4080 ng/mL and 4880 ng/mL and 6220 ng/mL. Besides, the “Reduction of peak systolic pressure and cardiac output, in words” value in series [3] (S 100 ng/ml vs R 950 ng/ml) is on record as “more effective at reducing peak systolic pressure (FIG. 2b) as well as cardiac output”. In addition, the “Nature of cardiac effect (inotropic / chronotropic)” value in series [3] (S 100 ng/ml, R 950 ng/ml) is on record as “primarily an inotropic drug”. Also, the “Heart rate (HR), significance vs predrug” value in series [3] (setting [4]) is “n.s”.
